# Active and inactive are the calls of the source. The calls are words filed in the database; no cut-off is given here.
# What was measured:
# [1] = Selectivity index, ratio of IC50 for African green monkey Vero cells to MIC50 for Mycobacterium tuberculosis H37Rv ATCC 27294; format: toxicity; conditions: read-out: Selectivity Index
# [2] = system: Mycobacterium tuberculosis; format: functional; conditions: H37Rv ATCC 27294, 168 h, time 7 day, read-out: MBC99.9
# [3] = system: Vero; test: Cytotoxicity against African green monkey Vero cells assessed as reduction in cell viability incubated for 48 hrs by CellTiter 96 aqueous one solution reagent based assay; conditions: Chlorocebus sabaeus
# [4] = system: Mycobacterium tuberculosis; format: functional; conditions: H37Rv ATCC 27294, 168 h, time 7 day
# [5] = system: Mycobacterium tuberculosis; format: functional, organism-based; conditions: H37Rv ATCC 27294, time 7.0 day
# [6] = Mutagenicity in Salmonella typhimurium TA98 at 1.5 to 64 ug in absence of S9 fraction by ames test; format: toxicity, Salmonella enterica subsp. enterica serovar Typhimurium; conditions: in vivo; dose 1.5-64 µg
# [7] = Metabolic stability in rat microsomes assessed as half life preincubated for 5 mins followed by NADPH addition and measured upto 45 mins by LC-MS/MS analysis; format: ADME, Microsome; conditions: time <=50 min
# [8] = Half life in Swiss albino mouse at 50 mg/kg, po or 1 mg/kg, iv measured upto 24 hrs by HPLC-LCMS analysis; format: ADME, organism-based; conditions: in vivo
# [9] = Volume of distribution in Swiss albino mouse at 50 mg/kg, po or 1 mg/kg, iv measured upto 24 hrs by HPLC-LCMS analysis; format: ADME, organism-based; conditions: in vivo
# [10] = Clearance in Swiss albino mouse at 50 mg/kg, po or 1 mg/kg, iv measured upto 24 hrs by HPLC-LCMS analysis; format: ADME, organism-based; conditions: in vivo
# [11] = Permeability of compound incubated for 16 hrs by PAMPA; format: ADME
# [12] = Aqueous solubility of compound at pH 7.4; format: physicochemical; conditions: buffer
# [13] = Mutagenicity in Salmonella typhimurium TA100 at 1.5 to 64 ug in absence of S9 fraction by ames test; format: toxicity, Salmonella enterica subsp. enterica serovar Typhimurium; conditions: in vivo; dose 1.5-64 µg
# [14] = Oral bioavailability in Swiss albino mouse at 50 mg/kg measured upto 24 hrs by HPLC-LCMS analysis; format: ADME, organism-based; conditions: in vivo
# [15] = Mutagenicity in Salmonella typhimurium TA98 at 1.5 to 64 ug in presence of S9 fraction by ames test; format: toxicity, subcellular, Salmonella enterica subsp. enterica serovar Typhimurium; conditions: dose 1.5-64 µg
# [16] = Mutagenicity in Salmonella typhimurium TA100 at 1.5 to 64 ug in presence of S9 fraction by ames test; format: toxicity, subcellular, Salmonella enterica subsp. enterica serovar Typhimurium; conditions: dose 1.5-64 µg
# [17] = system: Mycolicibacterium smegmatis; test: Induction of NADH oxidation in Mycobacterium smegmatis mc24517 inverted membrane vesicles; format: functional, Membrane vesicle
# [18] = system: Mycolicibacterium smegmatis; test: Induction of pH gradient dissipation in Mycobacterium smegmatis mc24517 inverted membrane vesicles at 1 to 2 uM; format: functional; conditions: Membrane vesicle, dose 1-2 µM
# [19] = system: Mycolicibacterium smegmatis; test: Induction of oxygen consumption in Mycobacterium smegmatis mc24517 inverted membrane vesicles; format: functional
# [20] = system: Mycolicibacterium smegmatis; test: Induction of hydrogen […] production in Mycobacterium smegmatis mc24517 inverted membrane vesicles; format: functional
Compound,selectivity ratio [1],MBC [2],IC50 [3],MIC50 [4],MIC90 [4],further results
CCCCCCn1c2c([n+](C3CCC4(CCCCC4)CC3)c1C)C(=O)c1ccccc1C2=O,21,1.6 µM,6.3 µM,0.3 µM,0.4 µM,–
CC(C)/N=c1\cc2n(-c3ccc(Cl)cc3)c3ccccc3nc-2cc1Nc1ccc(Cl)cc1 [CLOFAZIMINE],–,–,–,0.2 µM,0.8 µM,–
CCCCCCCn1c2c([n+](CCCCC)c1C)C(=O)c1ccccc1C2=O.[Br-],26,6.3 µM,20 µM,0.77 µM,1.2 µM,Activity [5]: Active
NNC(=O)c1ccncc1 [ISONIAZID],–,–,–,1.6 µM,3.2 µM,–
CCCCCCn1c2c([n+](CCCCCC)c1C)C(=O)c1ccccc1C2=O,21,6.3 µM,14 µM,0.67 µM,1.5 µM,–
CCCCn1c2c([n+](C3CCC4(CCCCC4)CC3)c1C)C(=O)c1ccccc1C2=O.[Br-],54,1.6 µM,15 µM,0.28 µM,0.53 µM,Activity [6]: Non-Toxic; half-life [7]: 0.333 h; half-life [8]: 7 h; Vd [9]: 27 L/kg; clearance [10]: 38 mL/min/kg; permeability [11]: Not Active; solubility [12]: 118 µM; Activity [13]: Non-Toxic; bioavailability [14]: 1%; Activity [15]: Non-Toxic; Activity [16]: Non-Toxic
CCCCCC[n+]1c2c(n(CC(C)C)c1C)C(=O)c1ccccc1C2=O,–,–,–,4 µM,6 µM,–
CCCCCCCCn1c2c([n+](CCCC)c1C)C(=O)c1ccccc1C2=O.[Br-],29,6.3 µM,24 µM,0.82 µM,1.5 µM,Activity [6]: Non-Toxic; half-life [7]: 0.333 h; EC50 [17]: 0.25 µM; half-life [8]: 7 h; Vd [9]: 27 L/kg; Activity [18]: Active; Activity [5]: Active; clearance [10]: 38 mL/min/kg; fold change (FC) [19]: 7; fold change (FC) [20]: 4; permeability [11]: Not Active; solubility [12]: 118 µM; Activity [13]: Non-Toxic; bioavailability [14]: 1%; Activity [15]: Non-Toxic; Activity [16]: Non-Toxic
CCCCCCCCn1c2c([n+](C3CCC4(CCCCC4)CC3)c1C)C(=O)c1ccccc1C2=O,17,1.2 µM,5 µM,0.3 µM,0.4 µM,–
CCCCCCCC[n+]1c2c(n(CC(C)C)c1C)C(=O)c1ccccc1C2=O,–,–,–,2 µM,3 µM,–

# From ChEMBL document CHEMBL4840357, “Functionalized Dioxonaphthoimidazoliums: A Redox Cycling Chemotype with Potent Bactericidal Activities against Mycobacterium tuberculosis” (J Med Chem, 2021)
